# In US4414206A, “Animal feeds” (Bristol-Myers Company, priority 1982, dated 1983):
# “Also recorded” adds a separate entry of the source.
# Tests used:
# [1] = tested on: Male broiler chickens; assay: Four week growth and feed efficiency study in broiler chicks fed amphomycin-supplemented feed; format: in vivo, chickens (Hubbard breeder pullet×White Mountain males)
# Text: The efficacy of amphomycin in promoting growth and improving the feed efficiency of broiler chicks is illustrated below.
# In this example a basal diet was employed containing the following ingredients:
# Male broiler chickens (Hubbard breeder pullet×White Mountain males) were used as the test animal. They were housed in electrically heated, metal battery brooders equipped with raised wire-screen floors. […] The room and battery units were left unclean from a previous test that terminated before the chicks were started. Drinking water for the test came from overflow water from a laying cage operation. The water was collected in garbage cans and was allowed to stand overnight to permit particulate matter to settle out. The birds were vaccinated at 7 days of age for Newcastle, Bronchitis and Marek's. The feed trays were fitted with wire screens riding on top of the feed to minimize feed wastage. Feed and water were fed ad libitum. Four groups of ten birds each, chosen on the basis of hatching body weight, were fed the experimental diet for a four week test period and four groups were fed the control diet. The groups of birds and diets were placed in the batteries on the basis of position chosen from tables of random numbers. The birds and the feed were group weighed on a weekly basis. The test was terminated at four weeks of age.
# The control diet was prepared as follows:
# The experimental diet (for amphomycin concentration
# of 4 grams/ton) was prepared as follows:
# *calculated for both groups at 800 grams body weight from feed efficiency
# [2] = tested on: rumen fermentation; assay: Artificial rumen test (in vitro rumen fermentation); settings: for Cellulose digested (%) / Methane produced (cc) / Propionate produced / Total calories digested (Calories) / Caloric efficiency: mean ± one standard deviation, three observations; for Caloric efficiency: formula in drawing 1
# Description: A standard in vitro method for determining compounds which stimulate propionate production during rumen fermentation is the artificial rumen method described in U.S. Pat. No. 3,794,732. […] This property in ruminants is presumably in addition to the previously-described feed-utilization efficiency promoting activity of amphomycin in monogastric animals which involves a different mechanism of action.
# Amphomycin was evaluated at doses of 0.025, 0.1 and 0.5 mg per incubation (25 ml. inoculum--artificial saliva with cellulose, starch and urea as nutrients) according to the general procedure of Example 5 of U.S. Pat. No. 3,794,732.
# ^a Results reported as mean ± one standard deviation. Controls
# ^b Reported as a percent of total volatile fatty acid calories
# [3] = 4 grams/ton amphomycin in feed, versus control group
# [4] = broiler chickens, about 4 to 12 grams per ton of feed, on average
# [5] = 0.025, 0.1 and 0.5 mg per incubation
substance,measurement,setting,value
amphomycin,Body weights in grams at 4 weeks of age,"[1]; 4 grams/ton amphomycin in feed, ad libitum, four week test, male broiler chickens",817.5 grams
same,Improvement in feed efficiency,[1]; [3],4.07%
same,Percentage increase in weight at end of 4 weeks,[1]; [3],6.21%
same,Feed efficiency calculated as consumption in grams ÷ average body weight in grams,"[1]; 4 grams/ton amphomycin in feed, calculated at 800 grams body weight from feed efficiency curve",1.480
same,less total feed consumed than comparable chickens fed same diet without amphomycin,[1]; [4],3%
same,more weight gained than comparable chickens fed same diet without amphomycin,[1]; [4],about 3%
same,Urease activity,[2]; 0.025 mg/tube,90 % of control
same,Cellulose digested (%),[2]; 0.025 mg/tube,64.9 ± 2.1%
same,Methane produced (cc),[2]; 0.025 mg/tube,2.88 ± 0.47 cc
same,Propionate produced,[2]; 0.025 mg/tube,58.9 ± 0.9% of total volatile fatt
same,Total calories digested (Calories),[2]; 0.025 mg/tube,1108 ± 22 Calories
same,Caloric efficiency,[2]; 0.025 mg/tube,62.1 ± 4.5
same,Urease activity,[2]; 0.1 mg/tube,84 % of control
same,Cellulose digested (%),[2]; 0.1 mg/tube,64.0 ± 2.4%
same,Methane produced (cc),[2]; 0.1 mg/tube,2.53 ± 0.20 cc
same,Propionate produced,[2]; 0.1 mg/tube,62.1 ± 1.7% of total volatile fatt
same,Total calories digested (Calories),[2]; 0.1 mg/tube,1098 ± 26 Calories
same,Caloric efficiency,[2]; 0.1 mg/tube,68.9 ± 10.0
same,Urease activity,[2]; 0.5 mg/tube,60 % of control
same,Cellulose digested (%),[2]; 0.5 mg/tube,57.5 ± 4.0%
same,Methane produced (cc),[2]; 0.5 mg/tube,1.27 ± 0.07 cc
same,Propionate produced,[2]; 0.5 mg/tube,67.1 ± 4.7% of total volatile fatt
same,Total calories digested (Calories),[2]; 0.5 mg/tube,1029 ± 43 Calories
same,Caloric efficiency,[2]; 0.5 mg/tube,65.5 ± 16.8
same,cellulase / cellulolysis (cellulose digestion) (in words),[2]; [5],did not significantly inhibit; also recorded: decreases slightly; also recorded: does not significantly inhibit
same,methane production (in words),[2]; [5],significantly inhibits; also recorded: decreases significantly
same,propionate production (in words),[2]; [5],significantly increase; also recorded: increases significantly
same,total calories digested (in words),[2]; [5],did not significantly inhibit cellulase or significantly affect total calories digested
same,dose that appears to be the most efficacious,[2]; 25 ml. inoculum per incubation,0.1 mg. per incubation
same,acetate and butyrate production (in words),[2]; as the dose increases,decreases
